Test results reported in patent US4783481A, “Rodenticides” (priority 1983, dated 1988).

Legend:
[1] = Analysis of relative proportions of cis and trans isomers in carcasses of target and non-target species; type: in vivo, foxes, cats, hawks, owls and crows; details: mixed isomers dosed
From the text: We have now discovered that although there is little to choose between the isomers in terms of their rodenticidal effectiveness there is a significant difference in their persistence in the tissues of nonrodent non-target species which may be exposed to accidental ingestion of brodifacoum.
Species in which this selective depuration has been noted include scavanging and preditor mammals such as foxes and cats, and birds such as hawks, owls and crows. Thus if non-target species such as these consume the carcasses of rodents which have been killed by the use of the invention compositions they will be able to metabolise the residues of the active ingredient and not be at risk through bioaccumulation of a toxic dose by subsequently consuming further contaminated carcasses.

[2] = Selective depuration of isomer pairs from vole tissue, Example 4; type: in vivo, meadow voles (Microtus penusylvanicus); details: for Amount of isomer pair recovered from the tissue / concentration at 24 h / concentration at 48 h / concentration at 72 h / concentration at 96 h / concentration at 120 h: 10 ppm pellets, 0.54 mg/kg of A-D mixture consumed; for half-life / concentration at 24 h / concentration at 48 h / concentration at 72 h / concentration at 96 h / concentration at 120 h: po; for half-life: 0.54 mg/kg, calculated; for half-life / depuration: vole tissue; for depuration: in words; for concentration at 24 h / concentration at 48 h / concentration at 72 h / concentration at 96 h / concentration at 120 h: vole, tissue, read-out: Amount of isomer pair recovered from the tissue; for Ratio: isomers C and D to isomers A and B
Procedure: This Example illustrates the selective depuration of the active ingredient of the invention compositions by meadow voles (Microtus penusylvanicus).
Fasted wild voles were given pellets containing 10 ppm of mixture (approximately 1:1:1:1 by weight) of isomers A, B, C and D of brodifacoum until they had consumed 0.54 mg of active ingredient per kilogram of body weight. Voles were killed at 0, 1, 2, 3, 4, 5 and 14 days after dosing and the relative amounts of the A, B isomer pair and the C, D isomer pair remain in the vole tissue determined by chromatographic means.

[3] = test system: cats; assay: in vivo; type: in vivo; details: diet simulating contaminated carcase
From the text: (§1) The compositions and methods of the invention may be successfully used to control rodents whilst minimising the hazard to non-target species as compared with the use of known compositions. […] This illustrates the improved safety of the invention compositions in the case of accidental ingestion of rodenticide bait by a non-target species.

[4] = test system: pheasants (Phasianus colchicus); type: in vivo; details: pheasants fed pelleted formulations; vs mixture of all four isomers (approximately 1:1:1:1)
From the text: as §1

[5] = in vivo; type: in vivo; details: cat, in vivo, po; cats; similar diet with corresponding quantity of all four isomers
From the text: as §1

| Structure (SMILES) | Amount of isomer pair recovered from the tissue ([2]; 0 days after dosing) | half-life [2] | depuration [2] | concentration at 24 h ([2]; 1 day after dosing) | concentration at 48 h ([2]; 2 days after dosing) | concentration at 72 h ([2]; 3 days after dosing) | concentration at 96 h ([2]; 4 days after dosing) | concentration at 120 h ([2]; 5 days after dosing) | prothrombin time [3] | also measured |
| --- | --- | --- | --- | --- | --- | --- | --- | --- | --- | --- |
| O=c1oc2ccccc2c(O)c1[C@H]1C[C@@H](c2ccc(-c3ccc(Br)cc3)cc2)Cc2ccccc21 (relative stereo) [Isomers A and B, reference compound] | 0.15 mg/kg | > 336 h | retained in the tissue | 147 ng/g | 114 ng/g | 114 ng/g | 123 ng/g | 101 ng/g |  | selective depuration / metabolism [1]: not metabolised at a sufficient rate to avoid the lethal consequences; selective depuration / metabolism ([1]; listed as cis isomer): relatively metabolically more stable |
| O=c1oc2ccccc2c(O)c1[C@@H]1C[C@@H](c2ccc(-c3ccc(Br)cc3)cc2)Cc2ccccc21 (relative stereo) [Isomers C and D] | 0.122 mg/kg | ~24 h | rapid depuration | 52 ng/g | 24 ng/g | 14 ng/g | 11 ng/g | 5 ng/g | temporary increase in prothrombin time which returned to normal after a short period | selective depuration / metabolism ([1]; listed as isomers C and D of brodifacoum): rapid depuration; selective depuration / metabolism ([1]; listed as trans isomer): selective metabolism of most or all of the trans isomer; Ratio ([2]; 0 days after dosing): 0.818; Ratio ([2]; 1 day after dosing): 0.354; Ratio ([2]; 2 days after dosing): 0.211; Ratio ([2]; 3 days after dosing): 0.123; Ratio ([2]; 4 days after dosing): 0.089; Ratio ([2]; 5 days after dosing): 0.05; mortality ([3]; in words): no mortality; survival rate [4]: much higher survival rate |
| O=c1oc2ccccc2c(O)c1C1CC(c2ccc(-c3ccc(Br)cc3)cc2)Cc2ccccc21 (stereo not drawn) [all four brodifacoum isomers, reference compound] |  |  |  |  |  |  |  |  | increased prothrombin times which did not return to normal | mortality [5]: 100% |
